From PMC9768162, “Synthesis of macrocyclic nucleoside antibacterials and their interactions with MraY” (Nature Communications, 2022)
Values after ≈ are worked out from the molar mass of the structure shown. Where two headings read alike, the source gives them in different places.

Experiments:
Assay in all cases: Antibacterial activity, MIC by microdilution broth method (CLSI)
[1] = tested on: S. aureus; type: cell-based, Staphylococcus aureus; details: for MIC: Staphylococcus aureus; for MIC (range over strains): clinically isolated MRSA (10 strains)
[2] = tested on: E. faecium; type: cell-based, Enterococcus faecium
[3] = tested on: E. faecalis; type: cell-based; details: for MIC: Enterococcus faecalis; for MIC (range over strains): clinically isolated E. faecalis (15 strains)
[4] = ATCC29213, 20 h, S. aureus ATCC 29213, CA-MHB, 37 °C, 20 h
[5] = MRSA, 20 h, S. aureus (MRSA) JE2, CA-MHB, 37 °C, performed once
[6] = MRSA, clinically isolated MRSA #1958
[7] = MRSA, clinically isolated MRSA #2071
[8] = MRSA, clinically isolated MRSA #2110
[9] = MRSA, clinically isolated MRSA #2310
[10] = MRSA, clinically isolated MRSA #2334
[11] = MRSA, clinically isolated MRSA #2931
[12] = MRSA, clinically isolated MRSA #2932
[13] = MRSA, clinically isolated MRSA #2933
[14] = MRSA, clinically isolated MRSA #2934
[15] = MRSA, clinically isolated MRSA #2935
[16] = Enterococcus faecium, ATCC35667, 20 h, E. faecium ATCC 35667, CA-MHB, 37 °C, 20 h, read-out: MIC
[17] = Enterococcus faecium, clinically isolated E. faecium strain 7, read-out: MIC
[18] = ATCC 51299 / VRE, E. faecalis (VRE) ATCC 51299
[19] = clinically isolated E. faecalis strain 21
[20] = clinically isolated E. faecalis strain 22
[21] = clinically isolated E. faecalis strain 23
[22] = clinically isolated E. faecalis strain 24
[23] = clinically isolated E. faecalis strain 25
[24] = clinically isolated E. faecalis strain 26
[25] = clinically isolated E. faecalis strain 27
[26] = clinically isolated E. faecalis strain 28
[27] = clinically isolated E. faecalis strain 29
[28] = clinically isolated E. faecalis strain 30
[29] = clinically isolated E. faecalis strain 31
[30] = clinically isolated E. faecalis strain 32
[31] = clinically isolated E. faecalis strain 33
[32] = clinically isolated E. faecalis strain 34
[33] = clinically isolated E. faecalis strain 35
[34] = Enterococcus faecium, ATCC 51559 / VRE, E. faecium (VRE) ATCC 51559, read-out: MIC
[35] = Enterococcus faecium, ATCC 51858 / VRE, E. faecium (VRE) ATCC 51858, read-out: MIC
[36] = Enterococcus faecium, clinically isolated E. faecium strain 1, read-out: MIC
[37] = Enterococcus faecium, clinically isolated E. faecium strain 2, read-out: MIC
[38] = Enterococcus faecium, clinically isolated E. faecium strain 3, read-out: MIC
[39] = Enterococcus faecium, clinically isolated E. faecium strain 4, read-out: MIC
[40] = Enterococcus faecium, clinically isolated E. faecium strain 5, read-out: MIC
[41] = Enterococcus faecium, clinically isolated E. faecium strain 8, read-out: MIC
[42] = Enterococcus faecium, clinically isolated E. faecium strain 9, read-out: MIC
[43] = Enterococcus faecium, clinically isolated E. faecium strain 10, read-out: MIC
[44] = Enterococcus faecium, clinically isolated E. faecium strain 11, read-out: MIC
[45] = Enterococcus faecium, clinically isolated E. faecium strain 13, read-out: MIC
[46] = Enterococcus faecium, clinically isolated E. faecium strain 14, read-out: MIC
[47] = Enterococcus faecium, clinically isolated E. faecium strain 15, read-out: MIC

SMILES: CC1(C)S[C@@H]2[C@H](NC(=O)[C@H](N)c3ccccc3)C(=O)N2[C@H]1C(=O)O [Ampicillin]
- MIC [1, 4]: 1 µg/mL (≈ 2.86 µM)
- MIC [1, 5]: 4 µg/mL (≈ 11.4 µM)
- MIC [1, 6]: 32 µg/mL (≈ 91.6 µM)
- MIC [1, 7]: 32 µg/mL (≈ 91.6 µM)
- MIC [1, 8]: 16 µg/mL (≈ 45.8 µM)
- MIC [1, 9]: 32 µg/mL (≈ 91.6 µM)
- MIC [1, 10]: 16 µg/mL (≈ 45.8 µM)
- MIC [1, 11]: 32 µg/mL (≈ 91.6 µM)
- MIC [1, 12]: 32 µg/mL (≈ 91.6 µM)
- MIC [1, 13]: 32 µg/mL (≈ 91.6 µM)
- MIC [1, 14]: 16 µg/mL (≈ 45.8 µM)
- MIC [1, 15]: 16 µg/mL (≈ 45.8 µM)
- MIC (range over strains) [1]: 16 to 32 µg/mL
- MIC [2, 16]: 1 µg/mL (≈ 2.86 µM)
- MIC ([2]; Enterococcus faecium, ATCC 51559 / VRE, E. faecium (VRE) ATCC 51559): 128 µg/mL (≈ 366 µM)
- MIC ([2]; Enterococcus faecium, ATCC 51858 / VRE, E. faecium (VRE) ATCC 51858): 128 µg/mL (≈ 366 µM)
- MIC ([2]; Enterococcus faecium, clinically isolated E. faecium strain 1): > 128 µg/mL
- MIC ([2]; Enterococcus faecium, clinically isolated E. faecium strain 2): 128 µg/mL (≈ 366 µM)
- MIC ([2]; Enterococcus faecium, clinically isolated E. faecium strain 3): > 128 µg/mL
- MIC ([2]; Enterococcus faecium, clinically isolated E. faecium strain 4): 128 µg/mL (≈ 366 µM)
- MIC ([2]; Enterococcus faecium, clinically isolated E. faecium strain 5): 128 µg/mL (≈ 366 µM)
- MIC [2, 17]: 0.5 µg/mL (≈ 1.43 µM)
- MIC ([2]; Enterococcus faecium, clinically isolated E. faecium strain 8): 128 µg/mL (≈ 366 µM)
- MIC ([2]; Enterococcus faecium, clinically isolated E. faecium strain 9): > 128 µg/mL
- MIC ([2]; Enterococcus faecium, clinically isolated E. faecium strain 10): > 128 µg/mL
- MIC ([2]; Enterococcus faecium, clinically isolated E. faecium strain 11): 128 µg/mL (≈ 366 µM)
- MIC ([2]; Enterococcus faecium, clinically isolated E. faecium strain 13): > 128 µg/mL
- MIC ([2]; Enterococcus faecium, clinically isolated E. faecium strain 14): 128 µg/mL (≈ 366 µM)
- MIC ([2]; Enterococcus faecium, clinically isolated E. faecium strain 15): 128 µg/mL (≈ 366 µM)
- MIC [3, 18]: 1 µg/mL (≈ 2.86 µM)
- MIC [3, 19]: 1 µg/mL (≈ 2.86 µM)
- MIC [3, 20]: 1 µg/mL (≈ 2.86 µM)
- MIC [3, 21]: 1 µg/mL (≈ 2.86 µM)
- MIC [3, 22]: 0.5 µg/mL (≈ 1.43 µM)
- MIC [3, 23]: 1 µg/mL (≈ 2.86 µM)
- MIC [3, 24]: 1 µg/mL (≈ 2.86 µM)
- MIC [3, 25]: 1 µg/mL (≈ 2.86 µM)
- MIC [3, 26]: 1 µg/mL (≈ 2.86 µM)
- MIC [3, 27]: 1 µg/mL (≈ 2.86 µM)
- MIC [3, 28]: 0.5 µg/mL (≈ 1.43 µM)
- MIC [3, 29]: 1 µg/mL (≈ 2.86 µM)
- MIC [3, 30]: 1 µg/mL (≈ 2.86 µM)
- MIC [3, 31]: 1 µg/mL (≈ 2.86 µM)
- MIC [3, 32]: 1 µg/mL (≈ 2.86 µM)
- MIC [3, 33]: 0.5 µg/mL (≈ 1.43 µM)
- MIC (range over strains) [3]: 0.5 to 1 µg/mL

SMILES: C[C@H]1COc2c(N3CCN(C)CC3)c(F)cc3c(=O)c(C(=O)O)cn1c23 [Levofloxacin]
- MIC [1, 4]: 0.13 µg/mL (≈ 0.36 µM)
- MIC [1, 5]: 8 µg/mL (≈ 22.1 µM)
- MIC [1, 6]: > 32 µg/mL
- MIC [1, 7]: 0.13 µg/mL (≈ 0.36 µM)
- MIC [1, 8]: > 32 µg/mL
- MIC [1, 9]: > 32 µg/mL
- MIC [1, 10]: > 32 µg/mL
- MIC [1, 11]: 16 µg/mL (≈ 44.3 µM)
- MIC [1, 12]: > 32 µg/mL
- MIC [1, 13]: > 32 µg/mL
- MIC [1, 14]: > 32 µg/mL
- MIC [1, 15]: > 32 µg/mL
- MIC [2, 16]: 4 µg/mL (≈ 11.1 µM)
- MIC [2, 34]: 16 µg/mL (≈ 44.3 µM)
- MIC [2, 35]: 4 µg/mL (≈ 11.1 µM)
- MIC [2, 36]: > 32 µg/mL
- MIC [2, 37]: > 32 µg/mL
- MIC [2, 38]: > 32 µg/mL
- MIC [2, 39]: > 32 µg/mL
- MIC [2, 40]: 32 µg/mL (≈ 88.6 µM)
- MIC [2, 17]: 0.5 µg/mL (≈ 1.38 µM)
- MIC [2, 41]: > 32 µg/mL
- MIC [2, 42]: > 32 µg/mL
- MIC [2, 43]: > 32 µg/mL
- MIC [2, 44]: > 32 µg/mL
- MIC [2, 45]: > 32 µg/mL
- MIC [2, 46]: > 32 µg/mL
- MIC [2, 47]: > 32 µg/mL
- MIC [3, 18]: 1 µg/mL (≈ 2.77 µM)
- MIC [3, 19]: 0.5 µg/mL (≈ 1.38 µM)
- MIC [3, 20]: 1 µg/mL (≈ 2.77 µM)
- MIC [3, 21]: 1 µg/mL (≈ 2.77 µM)
- MIC [3, 22]: 1 µg/mL (≈ 2.77 µM)
- MIC [3, 23]: 0.5 µg/mL (≈ 1.38 µM)
- MIC [3, 24]: 0.5 µg/mL (≈ 1.38 µM)
- MIC [3, 25]: 1 µg/mL (≈ 2.77 µM)
- MIC [3, 26]: 1 µg/mL (≈ 2.77 µM)
- MIC [3, 27]: 0.5 µg/mL (≈ 1.38 µM)
- MIC [3, 28]: 1 µg/mL (≈ 2.77 µM)
- MIC [3, 29]: 1 µg/mL (≈ 2.77 µM)
- MIC [3, 30]: 1 µg/mL (≈ 2.77 µM)
- MIC [3, 31]: 1 µg/mL (≈ 2.77 µM)
- MIC [3, 32]: 1 µg/mL (≈ 2.77 µM)
- MIC [3, 33]: 2 µg/mL (≈ 5.53 µM)
- MIC (range over strains) [3]: 0.5 to 2 µg/mL

SMILES: CN[C@H](CC(C)C)C(=O)N[C@H]1C(=O)N[C@@H](CC(N)=O)C(=O)N[C@H]2C(=O)N[C@H]3C(=O)N[C@H](C(=O)N[C@H](C(=O)O)c4cc(O)cc(O)c4-c4cc3ccc4O)[C@H](O)c3ccc(c(Cl)c3)Oc3cc2cc(c3O[C@@H]2O[C@H](CO)[C@@H](O)[C@H](O)[C@H]2O[C@H]2C[C@](C)(N)[C@H](O)[C@H](C)O2)Oc2ccc(cc2Cl)[C@H]1O [Vancomycin]
- MIC [1, 4]: 1 µg/mL (≈ 0.69 µM)
- MIC [1, 5]: 1 µg/mL (≈ 0.69 µM)
- MIC [1, 6]: 1 µg/mL (≈ 0.69 µM)
- MIC [1, 7]: 1 µg/mL (≈ 0.69 µM)
- MIC [1, 8]: 2 µg/mL (≈ 1.38 µM)
- MIC [1, 9]: 2 µg/mL (≈ 1.38 µM)
- MIC [1, 10]: 2 µg/mL (≈ 1.38 µM)
- MIC [1, 11]: 1 µg/mL (≈ 0.69 µM)
- MIC [1, 12]: 2 µg/mL (≈ 1.38 µM)
- MIC [1, 13]: 1 µg/mL (≈ 0.69 µM)
- MIC [1, 14]: 1 µg/mL (≈ 0.69 µM)
- MIC [1, 15]: 2 µg/mL (≈ 1.38 µM)
- MIC (range over strains) [1]: 1 to 2 µg/mL
- MIC ([2]; E. faecium (VRE) ATCC 51559): >128 µg/mL
- MIC [2, 16]: 0.5 µg/mL (≈ 0.345 µM)
- MIC [2, 34]: > 128 µg/mL
- MIC [2, 35]: 128 µg/mL (≈ 88.3 µM)
- MIC [2, 36]: 1 µg/mL (≈ 0.69 µM)
- MIC [2, 37]: 1 µg/mL (≈ 0.69 µM)
- MIC [2, 38]: 1 µg/mL (≈ 0.69 µM)
- MIC [2, 39]: 1 µg/mL (≈ 0.69 µM)
- MIC [2, 40]: 1 µg/mL (≈ 0.69 µM)
- MIC [2, 17]: 0.5 µg/mL (≈ 0.345 µM)
- MIC [2, 41]: 1 µg/mL (≈ 0.69 µM)
- MIC [2, 42]: 1 µg/mL (≈ 0.69 µM)
- MIC [2, 43]: 1 µg/mL (≈ 0.69 µM)
- MIC [2, 44]: 1 µg/mL (≈ 0.69 µM)
- MIC [2, 45]: 1 µg/mL (≈ 0.69 µM)
- MIC [2, 46]: 0.5 µg/mL (≈ 0.345 µM)
- MIC [2, 47]: 1 µg/mL (≈ 0.69 µM)
- MIC (range over strains) ([2]; clinically isolated E. faecium (14 strains)): 0.5 to 1 µg/mL
- MIC [3, 18]: 128 µg/mL (≈ 88.3 µM)
- MIC [3, 19]: 1 µg/mL (≈ 0.69 µM)
- MIC [3, 20]: 1 µg/mL (≈ 0.69 µM)
- MIC [3, 21]: 1 µg/mL (≈ 0.69 µM)
- MIC [3, 22]: 1 µg/mL (≈ 0.69 µM)
- MIC [3, 23]: 1 µg/mL (≈ 0.69 µM)
- MIC [3, 24]: 1 µg/mL (≈ 0.69 µM)
- MIC [3, 25]: 1 µg/mL (≈ 0.69 µM)
- MIC [3, 26]: 1 µg/mL (≈ 0.69 µM)
- MIC [3, 27]: 1 µg/mL (≈ 0.69 µM)
- MIC [3, 28]: 1 µg/mL (≈ 0.69 µM)
- MIC [3, 29]: 4 µg/mL (≈ 2.76 µM)
- MIC [3, 30]: 1 µg/mL (≈ 0.69 µM)
- MIC [3, 31]: 2 µg/mL (≈ 1.38 µM)
- MIC [3, 32]: 1 µg/mL (≈ 0.69 µM)
- MIC [3, 33]: 1 µg/mL (≈ 0.69 µM)
- MIC (range over strains) [3]: 1 to 4 µg/mL
